Measurements: patent publication US20070128217A1 (priority 2003, published 2007)

What was measured:
[1] = system: antibodies in sera from SARS patients (sera 1a, 1b, 2, 6, 37, 62, London, SARS-yellow, SARS-green); type: binding, human; parameters: Binding of serum 6 to linear peptides of protein X1 of SARS-CoV Urbani / Binding of serum 37 to linear peptides of protein X1 of SARS-CoV Urbani / Binding of serum 6 to looped/cyclic peptide (PEPSCAN-ELISA) / Binding of serum 37 to looped/cyclic peptide (PEPSCAN-ELISA) / Binding of serum 37 to looped/cyclic peptides of protein X1 of SARS-CoV Urbani / Binding of serum 6 to linear peptides of protein X2 / Binding of serum 37 to linear peptides of protein X2 / Binding of serum 37 to looped/cyclic peptides of protein X2 of SARS-CoV Urbani / Binding of serum 6 to linear peptides of protein M of SARS-CoV Urbani / Binding of serum 37 to linear peptides of protein M of SARS-CoV Urbani / Binding of serum 6 to looped/cyclic peptides of protein M of SARS-CoV Urbani / Binding of serum 37 to looped/cyclic peptides of protein M of SARS-CoV Urbani / Binding of serum 6 to linear peptides of protein X3 of SARS-CoV Urbani / Binding of serum 37 to linear peptides of protein X3 of SARS-CoV Urbani / Binding of serum 37 to looped/cyclic peptides of protein X3 of SARS-CoV Urbani / Binding of serum 6 to linear peptides of protein X4 of SARS-CoV Urbani / Binding of serum 37 to linear peptides of protein X4 of SARS-CoV Urbani / Binding of serum 37 to looped/cyclic peptides of protein X4 of SARS-CoV Urbani / Binding of serum 6 to linear peptides of protein X5 of SARS-CoV Urbani / Binding of serum 37 to linear peptides of protein X5 of SARS-CoV Urbani / Binding of serum 37 to looped/cyclic peptides of protein X5 of SARS-CoV Urbani / Binding of serum 6 to linear peptides of protein N of SARS-CoV Urbani / Binding of serum 37 to linear peptides of protein N of SARS-CoV Urbani / Binding of serum 6 to linear peptide (PEPSCAN-ELISA) / Binding of serum 1a to looped/cyclic peptides of protein N of SARS-CoV Urbani / Binding of serum 1b to looped/cyclic peptides of protein N of SARS-CoV Urbani / Binding of serum 2 to looped/cyclic peptides of protein N of SARS-CoV Urbani / Binding of serum 6 to looped/cyclic peptides of protein N of SARS-CoV Urbani / Binding of serum 37 to looped/cyclic peptides of protein N of SARS-CoV Urbani / Binding of serum 62 to looped/cyclic peptides of protein N of SARS-CoV Urbani / Binding of serum London to looped/cyclic peptides of protein N of SARS-CoV Urbani / Binding of serum SARS-green to looped/cyclic peptides of protein N of SARS-CoV Urbani: unit not given here
[2] = system: control sera (pooled serum of ten healthy LUMC hospital workers; commercial negative donor pooled serum from the Dutch bloodbank); type: binding, human; parameters: Binding of Control serum LUMC to linear peptides / Binding of Control serum Blood-bank to linear peptides / Binding of Control serum LUMC to looped peptides / Binding of Control Serum Blood-Bank to Looped peptides / Binding of Control serum LUMC to linear peptides of the protein M of SARS-CoV Urbani / Binding of Control serum Blood-bank to linear peptides of the protein M of SARS-CoV Urbani / Binding of Control serum LUMC to looped peptides of the protein M of SARS-CoV Urbani / Binding of Control Serum Blood-Bank to Looped peptides of the protein M of SARS-CoV Urbani: unit not given here
[3] = system: rabbit serum obtained by immunizing a rabbit with the SARS-CoV strain Frankfurt 1; type: binding; parameters: Binding of a rabbit serum to linear peptides / Binding of a rabbit serum to looped peptides / Rabbit serum linear peptides / Rabbit serum looped peptides / Binding of a rabbit serum to linear peptides of protein N of SARS-CoV Urbani (Rabbit serum linear peptides) / Binding of a rabbit serum to looped/cyclic peptides of protein N of SARS-CoV Urbani (Rabbit serum looped peptides): unit not given here
[4] = system: recombinant human anti-SARS-CoV antibody 03-018; type: binding; parameters: Binding of antibody 03-018 to linear peptides of the N protein of SARS-CoV Urbani / Binding of antibody 03-018 to looped/cyclic peptides of the N protein of SARS-CoV Urbani: unit not given here

| Sequence | Binding of serum 1a to linear peptides of protein N of SARS-CoV Urbani [1] | Binding of serum 1a to looped/cyclic peptides of protein N of SARS-CoV Urbani [1] | Binding of serum 1b to linear peptides of protein N of SARS-CoV Urbani [1] | Binding of serum 1b to looped/cyclic peptides of protein N of SARS-CoV Urbani [1] | Binding of serum 2 to linear peptides of protein N of SARS-CoV Urbani [1] | Binding of serum 2 to looped/cyclic peptides of protein N of SARS-CoV Urbani [1] | Binding of serum 6 to linear peptides of protein N of SARS-CoV Urbani [1] | Binding of serum 6 to looped/cyclic peptides of protein N of SARS-CoV Urbani [1] | Binding of serum 37 to linear peptides of protein N of SARS-CoV Urbani [1] | Binding of serum 37 to looped/cyclic peptides of protein N of SARS-CoV Urbani [1] | Binding of serum 62 to linear peptides of protein N of SARS-CoV Urbani [1] | Binding of serum 62 to looped/cyclic peptides of protein N of SARS-CoV Urbani [1] | Binding of serum London to linear peptides of protein N of SARS-CoV Urbani [1] | Binding of serum London to looped/cyclic peptides of protein N of SARS-CoV Urbani [1] | Binding of serum SARS-green to looped/cyclic peptides of protein N of SARS-CoV Urbani [1] | Binding of serum SARS-yellow to looped/cyclic peptides of protein N of SARS-CoV Urbani [1] | Binding of a rabbit serum to linear peptides of protein N of SARS-CoV Urbani (Rabbit serum linear peptides) [3] | Binding of a rabbit serum to looped/cyclic peptides of protein N of SARS-CoV Urbani (Rabbit serum looped peptides) [3] | Binding of antibody 03-018 to linear peptides of the N protein of SARS-CoV Urbani [4] | Binding of antibody 03-018 to looped/cyclic peptides of the N protein of SARS-CoV Urbani [4] | also measured |
| --- | --- | --- | --- | --- | --- | --- | --- | --- | --- | --- | --- | --- | --- | --- | --- | --- | --- | --- | --- | --- | --- |
| KHIDAYKTFPPTEPK | 0.3 | 0.2 | 0.1 | 0.1 | 0.3 | 0.2 | 0.2 | 0.1 | 0.7 | 0.4 | 0.8 | 0.3 | 0.5 | 0.3 | 0.1 | 0.1 | 0.1 | 0.2 | 0.1 | 0.2 | Binding of serum SARS-green to linear peptides of protein N of SARS-CoV Urbani [1]: 0.5; Binding of serum SARS-yellow to linear peptides of protein N of SARS-CoV Urbani [1]: 0.8; Control Serum Blood-Bank Looped peptides [2]: 0.3; Control serum Blood-bank linear peptides [2]: 0.8; Control serum LUMC linear peptides [2]: 0.7; Control serum LUMC looped peptides [2]: 0.3 |
| TASWFTALTQHGKEE | 0.2 | 0.2 | 0.1 | 0.1 | 0.1 | 0.1 | 0.1 | 0.1 | 0.7 | 0.4 | 0.4 | 0.2 | 0.4 | 0.3 | 0.1 | 0.2 | 0.1 | 0.7 | 0.1 | 0.2 | Binding of serum SARS-green to linear peptides of protein N of SARS-CoV Urbani [1]: 0.3; Binding of serum SARS-yellow to linear peptides of protein N of SARS-CoV Urbani [1]: 0.5; Binding of Control Serum Blood-Bank to Looped peptides [2]: 0.4; Binding of Control serum Blood-bank to linear peptides [2]: 0.6; Binding of Control serum LUMC to linear peptides [2]: 0.5; Binding of Control serum LUMC to looped peptides [2]: 0.3 |
| KDHIGTRNPNNNAAT | 0.3 | 0.4 | 0.2 | 0.3 | 0.4 | 0.5 | 0.3 | 0.4 | 0.9 | 0.5 | 0.8 | 0.4 | 0.5 | 0.4 | 0.1 | 0.3 | 0.1 | 0.2 | 0.1 | 0.2 | Binding of serum SARS-green to linear peptides of protein N of SARS-CoV Urbani [1]: 0.5; Binding of serum SARS-yellow to linear peptides of protein N of SARS-CoV Urbani [1]: 0.8; Binding of Control Serum Blood-Bank to Looped peptides [2]: 0.6; Binding of Control serum Blood-bank to linear peptides [2]: 0.9; Binding of Control serum LUMC to linear peptides [2]: 0.8; Binding of Control serum LUMC to looped peptides [2]: 0.6 |
| AEGSRGGSQASSRSS | – | 0.4 | – | 0.2 | – | 0.4 | – | 0.5 | – | 0.5 | – | 0.5 | – | 0.4 | 0.4 | 0.4 | 0.2 | 0.6 | 0.1 | 0.2 | Binding of serum 1a to linear peptide (PEPSCAN-ELISA) [1]: 0.3; Binding of serum 1b to linear peptide (PEPSCAN-ELISA) [1]: 0.2; Binding of serum 2 to linear peptide (PEPSCAN-ELISA) [1]: 0.3; Binding of serum 6 to linear peptide (PEPSCAN-ELISA) [1]: 0.3; Binding of serum 37 to linear peptide (PEPSCAN-ELISA) [1]: 0.7; Binding of serum 62 to linear peptide (PEPSCAN-ELISA) [1]: 0.7; Binding of serum London to linear peptide (PEPSCAN-ELISA) [1]: 0.5; Binding of serum SARS-green to linear peptide (PEPSCAN-ELISA) [1]: 0.4; Binding of serum SARS-yellow to linear peptide (PEPSCAN-ELISA) [1]: 0.6; Binding of Control Serum Blood-Bank to Looped peptides [2]: 0.6; Binding of Control serum Blood-bank to linear peptides [2]: 0.8; Binding of Control serum LUMC to linear peptides [2]: 0.8; Binding of Control serum LUMC to looped peptides [2]: 0.8 |
